Reference: ChEMBL document CHEMBL1201862, “PubChem BioAssay data set” (2004)
Active and inactive are the calls of the source.

What was measured:
Type in all cases: functional
[1] = biological target: Glycogen synthase kinase-3 beta (Homo sapiens, UniProt P49841); test: GSK3beta kinase inhibitors, dose response, biochemical, microfluidics, dry powder samples, set 2 (AID 623989)
[2] = biological target: Glycogen synthase kinase-3 alpha (Homo sapiens, UniProt P49840); test: human GSK3 alpha kinase inhibition, dose response, selectivity assay for GSK3beta inhibitor project, biochemical, microfluidics, dry powder samples, set 2 (AID 623978)
Chain of Glycogen synthase kinase-3 alpha (P49840 whole entry): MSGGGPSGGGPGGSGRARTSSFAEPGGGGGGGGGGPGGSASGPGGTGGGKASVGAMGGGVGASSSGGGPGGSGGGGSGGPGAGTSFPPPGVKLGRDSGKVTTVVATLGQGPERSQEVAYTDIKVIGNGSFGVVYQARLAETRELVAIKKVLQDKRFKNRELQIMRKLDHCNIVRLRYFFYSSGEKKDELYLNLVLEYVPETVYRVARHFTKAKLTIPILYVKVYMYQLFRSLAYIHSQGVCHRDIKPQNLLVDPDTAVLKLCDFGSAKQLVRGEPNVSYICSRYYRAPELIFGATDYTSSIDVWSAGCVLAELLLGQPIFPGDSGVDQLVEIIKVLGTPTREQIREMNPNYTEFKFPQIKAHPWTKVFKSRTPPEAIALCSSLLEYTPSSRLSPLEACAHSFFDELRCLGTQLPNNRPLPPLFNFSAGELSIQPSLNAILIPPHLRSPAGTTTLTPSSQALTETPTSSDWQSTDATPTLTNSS

[3] = biological target: Cyclin-dependent kinase 5/CDK5 activator 1 (Homo sapiens, UniProt Q00535); test: CDK5-p25 kinase inhibition, dose response, selectivity assay for GSK3beta inhibitor project, biochemical, microfluidic mobility shift, dry powder, set 2 (AID 623979)
Chain of Cyclin-dependent kinase 5/CDK5 activator 1 (Q00535 whole entry): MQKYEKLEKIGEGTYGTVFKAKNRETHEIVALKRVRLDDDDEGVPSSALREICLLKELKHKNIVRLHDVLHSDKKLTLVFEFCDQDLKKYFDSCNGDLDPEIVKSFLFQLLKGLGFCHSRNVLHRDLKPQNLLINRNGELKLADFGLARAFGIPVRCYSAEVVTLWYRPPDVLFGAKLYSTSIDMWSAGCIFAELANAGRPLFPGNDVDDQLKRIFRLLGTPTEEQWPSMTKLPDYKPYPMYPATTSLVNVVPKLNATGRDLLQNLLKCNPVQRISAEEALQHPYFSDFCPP
Chain of Cyclin-dependent kinase 5/CDK5 activator 1 (Q15078 whole entry, further chain): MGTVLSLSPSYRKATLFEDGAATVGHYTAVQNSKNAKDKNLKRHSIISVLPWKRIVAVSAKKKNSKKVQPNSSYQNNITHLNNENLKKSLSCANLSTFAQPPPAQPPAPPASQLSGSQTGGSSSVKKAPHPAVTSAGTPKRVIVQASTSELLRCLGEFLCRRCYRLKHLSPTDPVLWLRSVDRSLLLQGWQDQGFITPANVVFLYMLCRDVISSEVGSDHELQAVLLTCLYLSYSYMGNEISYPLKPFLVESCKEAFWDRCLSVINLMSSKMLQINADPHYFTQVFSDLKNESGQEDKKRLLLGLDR

Measured: AC50

Chain of Glycogen synthase kinase-3 beta (P49841 whole entry): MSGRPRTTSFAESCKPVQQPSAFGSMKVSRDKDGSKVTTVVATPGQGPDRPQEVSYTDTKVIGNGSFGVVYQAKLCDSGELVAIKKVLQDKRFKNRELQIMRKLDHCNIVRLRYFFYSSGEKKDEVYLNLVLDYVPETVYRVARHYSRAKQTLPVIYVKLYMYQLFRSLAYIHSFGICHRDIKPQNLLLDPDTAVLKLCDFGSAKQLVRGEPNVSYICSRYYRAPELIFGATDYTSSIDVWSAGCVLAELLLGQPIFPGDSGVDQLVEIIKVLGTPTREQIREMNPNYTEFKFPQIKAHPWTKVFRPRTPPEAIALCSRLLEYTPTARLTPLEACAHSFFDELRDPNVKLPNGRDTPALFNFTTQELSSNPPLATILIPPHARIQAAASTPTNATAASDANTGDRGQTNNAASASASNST

Cc1cccc(C(=O)N[C@H]2C[C@@H](n3cnc(NC(=O)Cc4cccc5ccccc45)c3)C2)n1
active: [1] 107 nM | [2] 361 nM | [3] 38 nM
